Assay results published in patent publication US20210315840A1, “SOLID ORAL DOSAGE FORMS OF KETAMINE DERIVATIVES” (priority 2017, published 2021).

Biological target: T1, 5-HT2C (Homo sapiens, UniProt P28335)
T1 sequence (P28335 33-458): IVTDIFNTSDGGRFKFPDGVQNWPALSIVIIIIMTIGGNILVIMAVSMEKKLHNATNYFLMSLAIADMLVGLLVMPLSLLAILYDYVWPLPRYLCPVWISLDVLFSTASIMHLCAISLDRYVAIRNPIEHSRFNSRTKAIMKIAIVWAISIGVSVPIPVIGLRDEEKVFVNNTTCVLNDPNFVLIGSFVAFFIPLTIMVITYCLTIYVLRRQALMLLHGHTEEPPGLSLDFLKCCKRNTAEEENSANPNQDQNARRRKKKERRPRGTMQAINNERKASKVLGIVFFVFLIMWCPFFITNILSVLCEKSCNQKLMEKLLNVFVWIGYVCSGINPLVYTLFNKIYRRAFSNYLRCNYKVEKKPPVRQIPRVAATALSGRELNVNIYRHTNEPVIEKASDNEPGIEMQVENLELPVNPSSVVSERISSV
Assay: Binding assay 5-HT2C
From the text: 2R,6R-hydroxynorketamine was investigated for binding to monoamine oxidases A and B, monoamine transporters, as well as a variety of 5HT receptors.

N[C@@]1(c2ccccc2Cl)CCC[C@@H](O)C1=O [2R,6R-hydroxynorketamine, 2R,6R-2-(2-Chlorophenyl)-2-(amino)-6-hydroxycyclohexanone]
% Inhibition of Control Specific Binding: 10% | % of Control Specific Binding: 91.1% | binding to 5HT2C receptor subtype (in words): does not bind
